Assay results: patent US20260167637A1, “NLRP3 INFLAMMASOME INHIBITOR AND USE THEREOF” (TransThera Sciences (Nanjing), Inc., priority 2022, published 2026)

Legend:
[1] = Pharmacokinetic study in mice; type: in vivo, female C57BL/6J mice; details: female, C57BL/6J, mouse, plasma; for clearance: read-out: Cl—obs iv (clearance rate) (converted); for Vd: read-out: Vss iv (distribution volume); for bioavailability: po 10 mg/kg vs iv 5 mg/kg, read-out: F% (absolute bioavailability); for Tmax: median, read-out: Tmax po (time to peak plasma concentration); for Cmax: read-out: Cmax po (peak concentration)
Outline: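 Female C57BL/6J mice received compound in 5% DMSO/20% (30% solutol)/75% saline at 10 mg/kg intragastrically (sampling 15 min–24 h) or 5 mg/kg intravenously (sampling 5 min–24 h). Plasma was acetonitrile-precipitated with tolbutamide internal standard and analysed by LC-MS/MS. PK parameters were derived by NCA, with Tmax as a median.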

[2] = Pharmacokinetic study in male SD rats; type: in vivo; details: rat, plasma; for clearance: read-out: Cl—obs iv (clearance rate) (converted); for Vd: read-out: Vss iv (distribution volume); for bioavailability: po 5 mg/kg vs iv 1 mg/kg, read-out: F% (absolute bioavailability); for Tmax: median, read-out: Tmax po (time to peak plasma concentration); for Cmax: read-out: Cmax po (peak concentration)
Protocol: Experimental Example 4: Pharmacokinetic Study of Compounds in Male SD Rats
(§1) The compounds were prepared into solutions using a mixed vehicle composed of 5% dimethyl sulfoxide, 20% (30% solutol), and 75% normal saline. The compound solutions were intragastrically administered to male SD rats at a dose of 5.0 mg/kg, and the blood collection time points were: 15 min, 30 min, 1 h, 2 h, 4 h, 6 h, 8 h, 10 h, and 24 h.
as §1, with “intravenously injected into” for “intragastrically administered to”, “1.0” for “5.0”, “were: 5 min,” for “were:”, “4h,” for “4 h,”, “8h,” for “8 h,”
Intravenous catheterization was performed on the animals the day before the administration. After the administration, blood samples of about 300 μL were collected from the jugular vein and placed into anticoagulation tubes containing EDTA-K2. The blood samples were centrifuged at 5000 rpm at 4° C. for 10 min to give plasma samples. The plasma samples were prepared within 30 min after blood collection. The plasma samples were stored in a −80° C. freezer before testing.

[3] = iv 5 mg/kg, read-out: AUClast iv (0-24 h)
[4] = iv 5 mg/kg, read-out: tz1/2 iv (terminal half-life) (converted)
[5] = po 10 mg/kg, read-out: AUClast po (0-24 h)
[6] = po 10 mg/kg, read-out: tz1/2 po (terminal half-life) (converted)
[7] = iv 1 mg/kg, read-out: AUClast iv (0-24 h)
[8] = iv 1 mg/kg, read-out: tz1/2 iv (terminal half-life) (converted)
[9] = po 5 mg/kg, read-out: AUClast po (0-24 h)
[10] = po 5 mg/kg, read-out: tz1/2 po (terminal half-life) (converted)

AUC(0-t) [1, 3] | clearance ([1]; iv 5 mg/kg) | Vd ([1]; iv 5 mg/kg) | half-life [1, 4] | bioavailability [1] | Tmax ([1]; po 10 mg/kg) | AUC(0-t) [1, 5] | Cmax ([1]; po 10 mg/kg) | half-life [1, 6] | AUC(0-t) [2, 7] | clearance ([2]; iv 1 mg/kg) | Vd ([2]; iv 1 mg/kg) | half-life [2, 8] | bioavailability [2] | Tmax ([2]; po 5 mg/kg) | AUC(0-t) [2, 9] | Cmax ([2]; po 5 mg/kg) | half-life [2, 10] | SMILES
3230 ng·h/mL | 25.7 mL/min/kg | 1.65 L/kg | 0.92 h | 85.7% | 0.5 h | 5530 ng·h/mL | 3030 ng/mL | 0.983 h | 1860 ng·h/mL | 7.95 mL/min/kg | 2.15 L/kg | 3.24 h | 81% | 0.5 h | 8480 ng·h/mL | 1260 ng/mL | 3.54 h | C#Cc1ccc(-c2nnc(N[C@@H]3CCCN(C)C3)c(=O)n2C)c(O)c1 [Compound 23, (R)-3-(4-ethynyl-2-hydoxyphenyl)-4-methyl-6-((1-methylpiperidin-3-yl)amino)-1,2,4-triazin-5(4H)-one]
11400 ng·h/mL | 7.27 mL/min/kg | 1.47 L/kg | 3.57 h | 83.7% | 1 h | 19100 ng·h/mL | 4130 ng/mL | 3.18 h | 1920 ng·h/mL | 8.38 mL/min/kg | 3.28 L/kg | 5.63 h | 71.5% | 4 h | 6840 ng·h/mL | 629 ng/mL | 5.19 h | C#Cc1ccc(-c2nnc(N[C@@H]3CCCN(CCO)C3)cc2C2CC2)c(O)c1 [Compound 45, (R)-2-(4-Cyclopropyl-6-((1-(2-hydroxyethyl)piperidin-3-yl)amino)pyridazin-3-yl)-5-ethynylphenol]
